{"source": "patent US20050100534A1", "about": "(priority 2000, published 2005)", "format_in_all_cases": "physicochemical", "key": {"Solubility in methanol": {"assay": "Solubility in methanol"}, "pH stability": {"assay": "pH stability", "conditions": "for pH stability: pH range in which stable"}, "pKa": {"assay": "pKa"}, "Solubility in water": {"assay": "Solubility in water"}, "[1]": {"assay": "Storage temperature (thermal stability)"}}, "data": [{"molecule": "O=C(O)[C@H](CO)O[C@@H]1O[C@H](CO)[C@@H](O)[C@H](O)[C@@H]1O", "values": [{"measurement": "Solubility in methanol", "setting": "Solubility in methanol", "value": 10, "unit": "%"}, {"measurement": "pH stability", "setting": "pH stability", "value": "2-12"}, {"measurement": "pKa", "setting": "pKa", "value": "~4.6"}, {"measurement": "Solubility in water", "setting": "Solubility in water", "value": "Very good; 60-70% (w/v)"}, {"measurement": "Storage temperature", "setting": "[1]", "value": "up to 95 °C"}]}, {"molecule": "NC(=O)[C@H](CO)O[C@@H]1O[C@H](CO)[C@@H](O)[C@H](O)[C@@H]1O", "note": "[Firoin-A, β-mannosylglyceramide]", "values": [{"measurement": "pH stability: alkaline hydrolysis above pH", "setting": "pH stability; pH above which alkaline hydrolysis occurs", "value": ">pH 8-9"}, {"measurement": "pH stability", "setting": "pH stability", "value": "Alkaline hydrolysis;"}]}]}
